This note sets out measurements from patent US20220380331A1, “TREATMENT OF CONDITIONS OF THE NERVOUS SYSTEM” (priority 2019, published 2022).

The test system of this assay is sensorimotor cortex (M1). As to the kind of experiment: Intracortical microstimulation (ICMS) mapping of HL and FL cortical movement representations. The assay is classed as in vivo, rat. The protocol:
FIG. […]): Perineuronal net inhibitor (PNNi) induces reorganisation of the sensorimotor map (M1) in intact rats. Using intracortical microstimulation (ICMS), mapping of the HL and FL cortical movement representations were used to investigate the functional organisation of the M1 of intact/sham animals after long-term treatment with the prospective plasticity enhancer, […] was performed at stereotaxic coordinates within a right hemisphere craniotomy 5 mm rostral/caudal to bregma (B) (A) 11 weeks post mid-thoracic laminectomy (Sham) or for age-controlled intact rats. Individual ICMS maps were combined to give the representative heat map per group illustrating the percentage of animals for each stereotaxic coordinate where hindlimb (HL; B-D) or forelimb (FL; K-M) movements were able to be elicited. A baseline HL and FL cortical map was generated for Lister Hooded rats (B, K; dotted outlines in B-D, K-M) to compare the functional plasticity of groups with sham surgery (C, L) and with chronic PNNi administration (D, M). Measurements for HL analysis (F-G) are illustrated in E). H) Average area (mm^2) of the HL representation reduced with PNNi treatment. […] Measurements for FL analysis (P-S) are illustrated in O). After PNNi treatment, FL movements were elicited in areas that are not associated with FL or HL movements (see right of the baseline HL map; white dotted outline K-M). […]

Turning to `Cc1cc(=O)oc2cc(O)ccc12` [PNNi, 4-methylumbelliferone], under “SCI plus long-term PNNi, sham control 4.27±1.56%”, the “percentage of FL movements associated with areas previously eliciting HL movements” value was 23.9±8.01%. Further, the “total area able to elicit HL movements” value (sham animals, long-term treatment) is on record as “reduced the total area able to elicit HL movements”.
